Source: patent US6603023B2 (priority 1996, dated 2003)
“And” between values parts separate entries of the source, which are not always exact repeats. Equal values may be shown once. Read-outs that look alike come from different tables or passages of the source. Marks after values point to notes of the source that are not given here.

What was measured:
CCRF-CEM/VBL100 = experiment: cells; format: cell-based, human
Description: (§1) The drug-resistant cell lines were continuously cultured in the presence of the selecting agent, AD, DX, VBL or VM to maintain the drug resistant phenotypes. […] All cells were cultured in RPMI 1640-10% FBS at 37° C. 5% CO2 (see below).
(§2) The cells were cultured at an initial density of 5×10^4 cells/mL. They were maintained in a 5% CO2-humidified atmosphere at 37° C. in RPMI-1640 medium (GIBCO-BRL, Gaithersburg, Md.) containing penicillin (100 U/mL), streptomycin ([…]) (GIBCO-BRL) and 10% heat inactivate fetal bovine serum. Culture for cell suspension (such as for CCRF-CEM, P388 and sublines), were performed by the XTT-microculture tetrazonium method (Scudiero, D. A. et al., Cancer Res. 1988, 48, 4827-4833) in duplicate in 96-well microtiter plates.
(§3) 2′,3′-Bis(methoxy-4-nitro-5-sufophenyl)-5-[(phenylamino)carbonyl]2H-tetrazolium hyudroxide (XTT) was prepared at 1 mg/mL in prewarmed (37° C.) medium without serum. Phenazine methosulfate (PMS) and fresh XTT were mixed together to obtain 0.025 mM PMS-XTT solution (25 μL of the stock 5 mM PMS was added per 5 mL of 1 mg/mL XTT). Following a 72 h incubation, 50 μL of the assay aliquots were added to each well of the cell culture. After incubation at 37° C. for 4 h, absorbance at 450 nm and 630 nm was measured with a microplate reader (EL340, Bio-Tek Instruments, Inc., Winooski, Vt.).

CCRF-CEM/VM1 = experiment: cells; format: cell-based, human
Description: as §1, §2, §3

[1] = test system: CCRF-CEM human T-cell acute lymphoblastic leukemia cell line; experiment: XTT cytotoxicity (cell growth inhibition), CCRF-CEM
Description: (§4) The DC-3F hamster lung fibroblast cell line and its actinomycin D-selected sublines (DC-3F/ADII and DC-3F/ADX) were obtained from the Memorial Sloan-Kettering Cancer Center (MSKCC).
as §1, §2, §3

DC-3F/ADII = experiment: SRB cytotoxicity, DC-3F/ADII; format: cell-based, hamster; settings: Table 3; read-out: IC50
Description: as §4, §1
(§5) The cytotoxicity of the drug toward the monolayer cell cultures (such as DC-3F, MCF-7, SK-N-As and sublines) was determined in 96-well microtiter plates by the SRB method as described by Skehan and co-workers (Skehan, P., et al., J. Natl. Cancer Inst. 1990, 82, 1107-1112) for measuring the cellular protein content. Cultures were fixed with trichloroacetic acid and then stained for 30 min with 0.4% suforhodamine B dissolved in 1% acetic acid. Unbound dye was removed by acetic acid washes, and the protein-bound dye was extracted with an unbuffered Tris base (tris(hydroxy-methyl)aminomethane) for determination of absorbance at 570 nm in a 96-well microtiter plate reader. The experiments were carried out in duplicate. Each run entailed six to seven concentrations of the tested drugs. Data were analyzed with the median-effect plot (Chou, T.-C. & Talalay, P. T. (1984) Adv. Enzyme Regul. 22, 27-55) using a previously described computer program (Chou, J., & Chou T.-C. 1987, Dose-effect analysis with microcomputers: Quantitation of ED50, synergism, antagonism, low-dose risk, reception-ligand binding and enzyme kinetics, IBM-PC software and manual, Biosoft, Cambridge, U.K.).
(§6) Concerning Table 3, experiments were carried out using the cell lines DC-3F (parent hamster lung cells), DC-3F/ADII (moderate multidrug-resistant (MDR) cells) and DC-3F/ADX (very strong MDR cells).

DC-3F/ADX = experiment: cells; format: cell-based, hamster; settings: Table 3; read-out: IC50
Description: as §4, §1, §5, §6

[2] = test system: DC-3F hamster lung fibroblast cell line; experiment: SRB cytotoxicity, DC-3F; format: cell-based; settings: Table 3; read-out: IC50
Description: as §4, §1, §5

[3] = Table 6, single determinations, listed as 9, read-out: IC50
[4] = Table 6, single determinations, listed as EPOTHILONE B (Natural), read-out: IC50
[5] = Table 6, single determinations, read-out: IC50
[6] = Table 7, CEM/VBL, read-out: IC50
[7] = Table 2, CCRF-CEM/VLB, read-out: IC50
[8] = Table 6, read-out: IC50 (mean ± of determinations, in parentheses)
[9] = Table 2, CCR-CEM/VM-1, read-out: IC50

**Q.** How did the “relative resistance (fold) vs parent cell line” value (“relative resistance (fold)” for short) (CCRF-CEM/VBL100; Table 6) turn out when `C/C(=C\c1csc(C)n1)[C@@H]1C[C@@H]2O[C@]2(C)CCC[C@H](C)[C@H](O)[C@@H](C)C(=O)C(C)(C)[C@@H](O)CC(=O)O1` [#9, epothilone B] was run?
**A.** (7.0X)

**Q.** What about the IC50 (CCRF-CEM/VBL100; [3]) of the same compound?
**A.** 2.6 nM

**Q.** What about the IC50 (CCRF-CEM/VBL100; [4]) of the same compound?
**A.** 1.7 nM

**Q.** What about the IC50 (CCRF-CEM/VBL100; Table 7, CEM/VBL, listed as natural epothitone B, read-out: IC50) of the same compound?
**A.** 2.63 nM

**Q.** What about the IC50 (CCRF-CEM/VM1; [3]) of the same compound?
**A.** 1.8 nM

**Q.** What about the IC50 (CCRF-CEM/VM1; [4]) of the same compound?
**A.** 0.77 nM

**Q.** What about the IC50 ([1]; Table 6, single determinations, listed as 9) of the same compound?
**A.** 0.44 nM

**Q.** What about the IC50 ([1]; Table 6, single determinations, listed as EPOTHILONE B (Natural)) of the same compound?
**A.** 0.17 nM

**Q.** What about the IC50 ([1]; Table 7, CEM, listed as natural epothitone B) of the same compound?
**A.** 0.44 nM

**Q.** `CC1=CCC(C(C)=Cc2csc(C)n2)OC(=O)CC(O)C(C)(C)C(=O)C(C)C(O)C(C)CCC1` (stereo not shown) [#11] was tested. Which IC50 (CCRF-CEM/VBL100; [5]) did it give?
**A.** 262 nM

**Q.** And the IC50 (CCRF-CEM/VBL100; [6])?
**A.** 262 nM

**Q.** What about the IC50 (CCRF-CEM/VBL100; read-out: IC50) of the same compound?
**A.** 262 nM

**Q.** And the IC50 (CCRF-CEM/VM1; [5])?
**A.** 94 nM

**Q.** What about the IC50 ([1]; Table 6, single determinations) of the same compound?
**A.** 90 nM

**Q.** And the IC50 ([1]; Table 7, CEM)?
**A.** 90 nM

**Q.** How did the IC50 (DC-3F/ADII) turn out when `C/C(=C\c1csc(C)n1)[C@@H]1C[C@@H]2O[C@@H]2CCC[C@H](C)[C@H](O)[C@@H](C)C(=O)C(C)(C)[C@@H](O)CC(=O)O1` [EPOTHILONE A NATURAL, epothilone A] was run?
**A.** 12.4 nM

**Q.** What about the IC50 (CCRF-CEM/VBL100; [7]) of the same compound?
**A.** 27.2 nM

**Q.** What about the “relative resistance (fold)” value (CCRF-CEM/VBL100; Table 6) of the same compound?
**A.** (7.4X)

**Q.** What about the IC50 (CCRF-CEM/VBL100; [8]) of the same compound?
**A.** 20 nM

**Q.** And the IC50 (CCRF-CEM/VBL100; [5])?
**A.** 21.1 nM and 18.9 nM

**Q.** And the IC50 (CCRF-CEM/VM1; [9])?
**A.** 3.4 nM

**Q.** And the “relative resistance (fold)” value (CCRF-CEM/VM1; Table 6)?
**A.** (2.3X)

**Q.** And the IC50 (CCRF-CEM/VM1; [8])?
**A.** 6.13 nM

**Q.** What about the IC50 (CCRF-CEM/VM1; [5]) of the same compound?
**A.** 6 nM and 6.25 nM

**Q.** And the IC50 (DC-3F/ADX)?
**A.** 53.3 nM

**Q.** What about the IC50 [2] of the same compound?
**A.** 3.68 nM

**Q.** What about the IC50 ([1]; Table 2) of the same compound?
**A.** 3.5 nM

**Q.** And the IC50 ([1]; Table 6, single determinations)?
**A.** 2.4 nM and 3.1 nM

**Q.** And the IC50 ([1]; read-out: IC50 (mean ± of determinations, in parentheses), Table 6)?
**A.** 2.7 nM

**Q.** What does the source list for `CC(=Cc1csc(C)n1)C1CC2OC2CCCCC(O)C(C)C(=O)C(C)(C)C(O)CC(=O)O1` (mixture of isomers) [8-desmethyl Mix-cis Epo]?
**A.** IC50 (CCRF-CEM/VBL100; [5]): 5950 nM; IC50 (CCRF-CEM/VM1; [5]): 2550 nM; IC50 ([1]; Table 6, single determinations): 960 nM

**Q.** With epothilone B as the compound, how does the “relative resistance (fold)” value (CCRF-CEM/VBL100; Table 6) read?
**A.** (6.1X)

**Q.** And the IC50 (CCRF-CEM/VBL100; [5])?
**A.** 2.1 nM

**Q.** What about the “relative resistance (fold)” value (CCRF-CEM/VM1; Table 6) of the same compound?
**A.** (3.6X)

**Q.** What about the IC50 (CCRF-CEM/VM1; [5]) of the same compound?
**A.** 1.2 nM

**Q.** And the IC50 ([1]; Table 6, single determinations)?
**A.** 0.33 nM

**Q.** How did the IC50 (CCRF-CEM/VBL100; [5]) turn out when `CC(=Cc1csc(C)n1)C1CC2OC2CCCC(C)C(O)C(C)C(=O)C(C)(C)C(O)CC(=O)O1` (stereo not shown) [#5] was run?
**A.** 35200 nM

**Q.** What about the IC50 (CCRF-CEM/VBL100; [6]) of the same compound?
**A.** 35200 nM

**Q.** What about the IC50 (CCRF-CEM/VM1; [5]) of the same compound?
**A.** 98000 nM

**Q.** And the IC50 ([1]; Table 6, single determinations)?
**A.** > 20000 nM

**Q.** What about the IC50 ([1]; Table 7, CEM) of the same compound?
**A.** > 20000 nM

**Q.** How did the IC50 (DC-3F/ADII) turn out when `CC(=Cc1csc(C)n1)C1CC=CCCCC(C)C(O)C(C)C(O)C(C)(C)C(O)CC(=O)O1` (stereo not shown) [#2] was run?
**A.** 4600 nM

**Q.** And the IC50 (CCRF-CEM/VBL100; [7])?
**A.** 6280 nM

**Q.** And the “(B)/(A) ratio (fold resistance >1, collateral sensitivity <1)” value (CCRF-CEM/VBL100; Table 2A)?
**A.** (0.44)^b

**Q.** What about the IC50 (CCRF-CEM/VBL100; Table 2A, MDR cell line, read-out: IC50 (B)) of the same compound?
**A.** 6280 nM

**Q.** And the IC50 (CCRF-CEM/VBL100; [5])?
**A.** 6280 nM

**Q.** What about the IC50 (CCRF-CEM/VBL100; [6]) of the same compound?
**A.** 6280 nM

**Q.** What about the IC50 (CCRF-CEM/VM1; [9]) of the same compound?
**A.** 43900 nM

**Q.** And the “(C)/(A) ratio (fold resistance >1, collateral sensitivity <1)” value (CCRF-CEM/VM1; Table 2A)?
**A.** (309)^a

**Q.** What about the IC50 (CCRF-CEM/VM1; Table 2A, Topo II gene mutated cell line, read-out: IC50 (C)) of the same compound?
**A.** 43900 nM

**Q.** And the IC50 (CCRF-CEM/VM1; [5])?
**A.** 43900 nM

**Q.** And the IC50 (DC-3F/ADX)?
**A.** 4810 nM

**Q.** What about the IC50 [2] of the same compound?
**A.** 10300 nM

**Q.** And the IC50 ([1]; Table 2)?
**A.** 14200 nM

**Q.** And the IC50 ([1]; Table 6, single determinations)?
**A.** 14200 nM

**Q.** What about the IC50 ([1]; Table 7, CEM) of the same compound?
**A.** 14200 nM

**Q.** And the IC50 ([1]; read-out: IC50 (A), Table 2A, parent cell line)?
**A.** 14200 nM
